Several values for one entry are separate records, joined by “and”; a condition that tells them apart may be missing. Equal values may be shown once. Read-outs that look alike come from different tables or passages of the source.
Tests used:
[1] = Pharmacokinetic study, single dose IP or oral gavage; format: in vivo, C57Bl/6 male mice; conditions: for AUC(0-t) / Tmax / AUC(0-inf) / Cmax / half-life: male, C57Bl/6, mouse; for AUC(0-inf): read-out: AUCINF_obs (converted); for Cmax / half-life: 20 mg/kg; for half-life: read-out: T½ (elimination half-life) (converted)
Experimental: To evaluate the pharmacokinetic (PK) profile of M-I, a single dose (20 mg/kg) was given to C57Bl/6 male mice by either intraperitoneal injection (IP group; n = 3) or oral ga-vage (oral group; n = 3). A dose of 20 mg/kg was chosen based on previous publications. The average plasma concentration ± standard deviation at each time point is shown in Figure 5A and corresponding PK parameters are summarized in Table 2. M-I was rapidly absorbed with a maximum plasma concentration 1 h post-IP and PO dose. […] The observed elimination half-life was 0.9 h in the IP group and 2 h in the PO group. The oral group had loose stool, starting four hours post-dose, which had not re-solved by 8 h but all mice appeared normal after twenty-four hours. […] We therefore selected IP administration of M-I for subsequence studies.
The pharmacokinetic (PK) study of M-I was performed in male C57Bl/6 mice. A sin-gle dose of M-I (formulated at 2 mg/mL dissolved in 5% DMSO/95% of a 30% w:v Captisol solution) was administered either by intraperitoneal injection (IP group, n = 3) or oral ga-vage (PO group, n = 3). After dosing, 20 µL blood samples were collected into heparin pre-coated tubes at 5 min, 15 min, 30 min, 1 h, 2 h, 4 h, 6 h, 8 h and 24 h. Samples were centrifuged, and the plasma collected. M-I concentration was determined using liq-uid chromatography-mass spectrometry/mass spectrometry (LC-MS/MS) as described earlier.

[2] = Toxicity study, 5 days, body weight and serum chemistries; format: in vivo, C57Bl/6 male mice
Experimental: For toxicity analysis, mice (n = 3) were given 20 mg/ kg of M-I twice a day or 30 mg/kg IP dose of M-I once a day by IP injection for five days. In parallel, there were untreated control (n = 3) and BME treated group (n = 3) for comparison. Behavior and body weight of mice were monitored daily. The body weight in all the mice was stable, with no drastic changes seen in any of the mice tested. We collected blood on day six, and serum chemistries related to liver and kidney function were examined.
For toxicity study, C57Bl/6 male mice were received either 30% BME through drinking water or 20 mg/kg of M-I twice a day or 30 mg/kg of M-I once a day by IP injection for 5 days. There were three mice in each group, including untreated control. Blood was collected on day 6, and serum was prepared. Serum parameters related to hepatotoxicity (total bilirubin, alanine transaminase, aspartate transaminase, and alkaline phosphatase) and nephrotoxicity (urea and creatinine) were performed.

[3] = literature-reported biology of the tentatively identified metabolite; no reference given; cited from earlier work

In the case of `CC(C)=CC(O)CC(C)[C@H]1CC[C@@]2(C)[C@@H]3[C@@H](O)C=C4[C@@H](CC[C@H](O)C4(C)C)[C@]3(C=O)CC[C@]12C` (stereo partly drawn) [M-I, (3S, 7S, 8S, 9R, 10R, 13R, 14S, 17R) 3,7-dihydroxy-17-(4-hydroxy-6-methylhept-5-en-2-yl)-4,4,13,14-tetramethyl-2,3,7,8,10,11, 12,15,16,17-decahydro-1H-cyclopenta[a]phenanthrene-9-carbaldehyde], the “adverse events in PK study” value ([1]; 20 mg/kg IP) is reported as “No adverse events”, the “AUC (%Extrap)” value ([1]; 20 mg/kg IP, plasma, mean ± SD) is reported as 0.33 ± 0.08% and the “AUC (%Extrap)” value ([1]; 20 mg/kg PO, plasma, mean ± SD) is reported as 6.84 ± 1.5%. The “T½ (elimination half-life)” value ([1]; 20 mg/kg PO, plasma, mean ± SD) was 2.11 ± 0.3 h, the “adverse events in PK study” value ([1]; 20 mg/kg oral gavage, starting four hours post-dose, normal after twenty-four hours) was “loose stool” and the AUC(0-t) ([1]; 20 mg/kg IP, plasma, mean ± SD) was 12700 ng·h/mL. For the same compound, the Tmax ([1]; 20 mg/kg IP, plasma, mean ± SD) was 1 h, the AUC(0-inf) ([1]; 20 mg/kg IP, plasma, mean ± SD) was 12800 ng·h/mL and the AUC(0-t) ([1]; 20 mg/kg PO, plasma, mean ± SD) was 643 ng·h/mL. The Tmax ([1]; 20 mg/kg PO, plasma, mean ± SD) was 1 ± 0.9 h, the AUC(0-inf) ([1]; 20 mg/kg PO, plasma, mean ± SD) was 688 ng·h/mL and the Cmax ([1]; plasma, ip, 20 mg/kg IP, mean ± SD) was 18 µM and 8430 ng/mL. The half-life ([1]; plasma, ip, 20 mg/kg IP, plasma, mean ± SD) was 0.9 ± 0.02 h, the Cmax ([1]; plasma, po, 20 mg/kg PO, mean ± SD) was 500 nM and 214 ng/mL and the half-life ([1]; plasma, po, 20 mg/kg PO, plasma, mean ± SD) was 2 h. The body weight ([2]; M-I 20 mg/kg twice a day or 30 mg/kg once a day IP, or 30% BME in drinking water, five days) was “stable”, the “serum chemistries (total bilirubin, alanine transaminase, aspartate transaminase, alkaline phosphatase, creatinine, urea, glucose) versus untreated control” value ([2]; blood on day six, M-I IP for five days or 30% BME in drinking water) was “comparable” and the “Reported Biology” value [3] was “• stimulate insulin secretion in vitro • diabetes-associated cardiac fibrosis”.

— publication PMC8003975 (Cancers, 2021)
